Results on four compounds are retold here after patent publication US20250360100A1, “ANTI-CANCER DERIVATIVES OF OVATODIOLIDE AND USE THEREOF” (ARJIL BIOTECH HOLDING COMPANY LIMITED, priority 2024, published 2025).

Data set [1] concerns AGS (human gastric adenocarcinoma cells). Nature of the data set: MTT cytotoxicity assay in AGS cells. The class given is cell-based. The note with it: 48 hours treatment, read-out: CC50 (50% cytotoxic concentration). As to the method: (§1) In the invention, the cytotoxic effect was evaluated by the viability of cancer/tumor cells measured by the MTT assay, in several cancer cell lines, including the cell lines 293, A549, Colo205, SK-HEP1, PC-3, PANC-1, and AGS.
(§2) The compounds as tested were dissolved in DMSO (100 mg/mL), along with Doxorubicin (Dox), taken as a benchmark control, and the in vitro cytotoxicity in cancer cell lines were tested from 60 or 100 μg/mL with three-fold serial dilutions, and the 50% cytotoxic concentration (CC50) of test articles was determined by MTT assay.
(§3) Seven cancer cell lines were used in this example, including 293 (human embryonic kidney cells 293), A549 (human non-small cell lung cancer cells), Colo205 (human colon adenocarcinoma cells), SK-HEP1 (human hepatic cancer cells), PC-3 (human prostate carcinoma), PANC-1 (human pancreatic epithelioid carcinoma), and AGS (human gastric adenocarcinoma cells), cultured in the media and indicated as the table above. Briefly, cells seeded in 96-well plates were treated for 48 hours with the compounds as tested and the solvent (0.1% DMSO) as the vehicle control, respectively. Cell viability was determined by the MTT method, and the CC50 values were calculated using GraFit (Version 7, Erithacus Software Ltd., Horley, UK) and recorded.
Background: Tetrazolium dyes change colour on reduction, which living cells bring about.

Data set [2] has as its system seven cancer cell lines (293, A549, Colo205, SK-HEP1, PC-3, PANC-1, AGS). Nature of the data set: MTT cytotoxicity, overall statement for the seven cancer cell lines. The class given is cell-based, human. The note with it: all seven cell lines, 48 hours. As to the method:
as §1, §2, §3

Data set [3] relates to Colo205 (human colon adenocarcinoma cells). The experiment in a line: MTT cytotoxicity assay in Colo205 cells. The data set is classed as cell-based. The note with it: COLO 205, 48 hours treatment, read-out: CC50 (50% cytotoxic concentration). On the procedure:
as §1, §2, §3

The subject of data set [4] is PC-3 (human prostate carcinoma). Nature of the data set: MTT cytotoxicity assay in PC-3 cells. The data set is classed as cell-based. To be noted: 48 hours treatment, read-out: CC50 (50% cytotoxic concentration). On the procedure:
as §1, §2, §3

For data set [5], the system named is A549 (human non-small cell lung cancer cells). The experiment in a line: MTT cytotoxicity assay in A549 cells. The data set is classed as cell-based. The note with it: 48 hours treatment, read-out: CC50 (50% cytotoxic concentration). As to the method: as §1, §2, §3
Data set [6] concerns SK-HEP1 (human hepatic cancer cells). The experiment in a line: MTT cytotoxicity assay in SK-HEP1 cells. The data set is classed as cell-based. To be noted: 48 hours treatment, read-out: CC50 (50% cytotoxic concentration). On the procedure: as §1, §2, §3
In data set [7] the test system is PANC-1 (human pancreatic epithelioid carcinoma). Nature of the data set: MTT cytotoxicity assay in PANC-1 cells. To be noted: 48 hours treatment, read-out: CC50 (50% cytotoxic concentration). The data set is classed as cell-based. As to the method: as §1, §2, §3
The subject of data set [8] is 293 (human embryonic kidney cells 293). The experiment in a line: MTT cytotoxicity assay in 293 cells. The class given is cell-based. The note with it: HEK293, 48 hours treatment, read-out: CC50 (50% cytotoxic concentration). On the procedure:
as §1, §2, §3

Values after ≈ are worked out from the molar mass of the structure shown.

With `C=C1C(=O)O[C@H]2/C=C(\C)C[C@@H]3C=C(CCC4OC4(C)CC[C@H]12)C(=O)O3` (stereo partly drawn) [Ova-Oxy], the CC50 in data set [1] was found to be 9.1 ± 0.9 µg/mL (≈ 26.4 µM); in data set [3], 17 ± 0.2 µg/mL (≈ 49.4 µM); in data set [4] it was 12.3 ± 5.4 µg/mL (≈ 35.7 µM); in data set [5] it was 23 ± 4.7 µg/mL (≈ 66.8 µM); in data set [6], 45.2 ± 3.2 µg/mL (≈ 131 µM); in data set [7], 32 ± 0.8 µg/mL (≈ 92.9 µM). Moreover, the CC50 in data set [8] was 22.5 ± 0.5 µg/mL (≈ 65.3 µM). Moreover, in data set [2], the “cytotoxicity (result in words)” value was “exhibit cytotoxic effects in all of the seven cancer cell lines”.

On to `C=C1C(=O)O[C@H]2/C=C(\C)C[C@@H]3C=C(CC/C=C(\C)CC[C@H]12)C(=O)O3` [AR100-DS1, ovatodiolide], for which the CC50 in data set [1] worked out at 13 ± 5.1 µg/mL (≈ 39.6 µM); in data set [3], 41.7 ± 4.5 µg/mL (≈ 127 µM); in data set [4], 17.8 ± 0.2 µg/mL (≈ 54.2 µM); in data set [5], 29.6 ± 0.4 µg/mL (≈ 90.1 µM); in data set [6], 49.9 ± 5.2 µg/mL (≈ 152 µM); in data set [7], 40.2 ± 3.9 µg/mL (≈ 122 µM). Also, in data set [8], the CC50 stood at 25.7 ± 2.5 µg/mL (≈ 78.3 µM).

For the compound `COc1cccc2c1C(=O)c1c(O)c3c(c(O)c1C2=O)C[C@@](O)(C(=O)CO)C[C@@H]3O[C@H]1C[C@H](N)[C@H](O)[C@H](C)O1` [Dox, Doxorubicin], the CC50 in data set [1] is 0.3 ± 0.1 µg/mL (≈ 0.552 µM); in data set [3], 8.7 ± 0.6 µg/mL (≈ 16 µM); in data set [4], 10.3 ± 1.5 µg/mL (≈ 19 µM); in data set [5], greater than 10 µg/mL; in data set [6], 9.8 ± 0.2 µg/mL (≈ 18 µM); in data set [7] it was 10.7 ± 1.5 µg/mL (≈ 19.7 µM). Further, the CC50 in data set [8] was greater than 10 µg/mL.

Take `C/C1=C\CCC2=C[C@@H](C/C(C)=C/[C@@H]3OC(=O)C(CSCCO)[C@H]3CC1)OC2=O` (stereo partly drawn) [Ova-ST2]: the CC50 in data set [1], in data set [3], in data set [4], in data set [5], in data set [6] and in data set [7] was greater than 100 µg/mL in each case. Also, the CC50 in data set [8] was greater than 100 µg/mL. Besides, in data set [2], the “cytotoxicity (result in words)” value is recorded as “did not exhibit the cytotoxicity”.
